# Columns and labels:
# Type in all cases: biochemical
# [1] = target: T1, N-terminal His6-tagged recombinant human KDR, residues 790-end (Homo sapiens, UniProt P35968); assay: KDR kinase inhibition assay (33P-ATP filter assay)
# T1 construct: recombinant human KDR, residues 790-end; His6 (N); purchased Upstate USA Inc, 706 Forest Street, Charlottesville, Va
# How it was run: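 His6-tagged human KDR (residues 790-end, 5-10 mU) with 0.33 mg/mL myelin basic protein in 8 mM MOPS pH 7.0, 0.2 mM EDTA, 10 mM magnesium acetate and [γ-33P]ATP; 40 min at room temperature. Stopped with phosphoric acid, filter-bound 33P counted; inhibition relative to no-inhibitor controls.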
# [2] = target: T2, N-terminal GST-tagged recombinant human Flt3, residues 564-end (Homo sapiens, UniProt P36888); assay: Flt3 kinase inhibition assay (33P-ATP filter assay); details: 40 minutes at room temperature
# T2 construct: recombinant human Flt3, residues 564-end; GST (N); purchased Upstate USA Inc, 706 Forest Street, Charlottesville, Va
# T2 sequence (P36888 564-993 limits assumed): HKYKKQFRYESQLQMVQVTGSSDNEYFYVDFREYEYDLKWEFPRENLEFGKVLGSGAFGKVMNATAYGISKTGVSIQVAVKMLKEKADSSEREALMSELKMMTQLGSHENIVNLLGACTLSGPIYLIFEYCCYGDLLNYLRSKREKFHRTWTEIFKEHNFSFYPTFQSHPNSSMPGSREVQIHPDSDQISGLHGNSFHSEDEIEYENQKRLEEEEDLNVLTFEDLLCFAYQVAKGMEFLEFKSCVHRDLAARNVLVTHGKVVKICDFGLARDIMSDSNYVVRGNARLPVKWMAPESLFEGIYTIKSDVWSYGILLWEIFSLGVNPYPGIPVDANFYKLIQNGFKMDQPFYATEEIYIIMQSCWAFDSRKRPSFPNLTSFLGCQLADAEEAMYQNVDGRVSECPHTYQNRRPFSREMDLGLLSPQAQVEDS
# How it was run: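 Serial compound dilutions incubated 40 min at room temperature with 5-10 mU Flt3 kinase, 50 μM peptide substrate and [γ-33P]ATP/10 mM magnesium acetate, pH 7.0. Phosphoric acid stop, filter capture and scintillation counting; activity compared with uninhibited reactions.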
# [3] = target: T3, N-terminal His-tagged human Src (Homo sapiens, UniProt P12931); assay: Src kinase inhibition assay (33P-ATP filter assay)
# T3 construct: His (N); purchased Upstate USA Inc, 706 Forest Street, Charlottesville, Va
# [4] = group with IC50 greater than 100 nM
# T3 sequence (P12931 whole entry): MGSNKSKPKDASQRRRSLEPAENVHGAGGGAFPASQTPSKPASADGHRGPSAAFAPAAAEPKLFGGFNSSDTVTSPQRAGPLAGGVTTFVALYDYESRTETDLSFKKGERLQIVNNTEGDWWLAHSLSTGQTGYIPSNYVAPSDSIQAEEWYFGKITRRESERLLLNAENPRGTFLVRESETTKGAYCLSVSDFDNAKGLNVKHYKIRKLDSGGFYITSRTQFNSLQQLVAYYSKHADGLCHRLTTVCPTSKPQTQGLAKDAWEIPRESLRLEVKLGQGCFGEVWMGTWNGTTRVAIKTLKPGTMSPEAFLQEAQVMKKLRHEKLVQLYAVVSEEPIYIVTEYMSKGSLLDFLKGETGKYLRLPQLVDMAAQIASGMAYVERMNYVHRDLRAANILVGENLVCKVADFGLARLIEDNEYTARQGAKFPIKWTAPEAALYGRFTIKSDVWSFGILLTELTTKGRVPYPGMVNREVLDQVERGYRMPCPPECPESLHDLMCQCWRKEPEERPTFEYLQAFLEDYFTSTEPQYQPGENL
# T1 sequence (P35968 790-1356 limits assumed): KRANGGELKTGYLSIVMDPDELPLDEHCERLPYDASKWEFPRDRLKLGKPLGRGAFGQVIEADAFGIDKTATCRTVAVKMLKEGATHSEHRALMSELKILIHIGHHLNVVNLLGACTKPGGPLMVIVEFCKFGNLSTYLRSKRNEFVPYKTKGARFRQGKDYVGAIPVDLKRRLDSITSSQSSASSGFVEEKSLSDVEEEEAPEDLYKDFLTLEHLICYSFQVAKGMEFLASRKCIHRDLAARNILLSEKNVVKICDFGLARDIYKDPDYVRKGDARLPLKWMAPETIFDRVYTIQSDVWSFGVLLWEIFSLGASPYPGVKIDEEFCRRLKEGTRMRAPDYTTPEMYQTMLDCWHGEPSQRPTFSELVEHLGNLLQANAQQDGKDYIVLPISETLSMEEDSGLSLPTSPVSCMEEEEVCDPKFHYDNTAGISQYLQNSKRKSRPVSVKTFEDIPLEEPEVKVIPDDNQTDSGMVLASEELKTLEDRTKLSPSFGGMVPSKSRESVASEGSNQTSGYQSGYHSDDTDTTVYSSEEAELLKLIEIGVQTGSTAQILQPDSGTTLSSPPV
"IC50 [1, 4]",IC50 [2],IC50 ([3]; 40 minutes at room temperature),"IC50 [3, 4]",IC50 ([1]; 40 minutes at room temperature),Structure (SMILES)
≤ 1000 nM,≤ 100 nM,≤ 100 nM,–,–,"Cc1cc(Nc2cc(NC3CCOCC3)nc(-c3cc4cc(NS(=O)(=O)C5CC5)ccc4o3)n2)n[nH]1 [Example 156, N-(2-(4-(5-methyl-1H-pyrazol-3-ylamino)-6-(tetrahydro-2H-pyran-4-ylamino)pyrimidin-2-yl)benzofuran-5-yl)cyclopropanesulfonamide]"
≤ 1000 nM,≤ 100 nM,–,≤ 1000 nM,–,"Cc1cc(Nc2cc(NC3CCOCC3)nc(-c3cccc(-c4ccccc4)c3)n2)n[nH]1 [Example 159, 2-(biphenyl-3-yl)-N^4-(5-methyl-1H-pyrazol-3-yl)-N^6-(tetrahydro-2H-pyran-4-yl)pyrimidine-4,6-diamine]"
≤ 1000 nM,≤ 100 nM,≤ 100 nM,–,–,"Cc1cc(Nc2cc(N3CCN(C)CC3)nc(-c3ccc(C#N)cc3)n2)n[nH]1 [Example 160, 4-(4-(5-methyl-1H-pyrazol-3-ylamino)-6-(4-methylpiperazin-1-yl)pyrimidin-2-yl)benzonitrile]"
–,≤ 100 nM,≤ 100 nM,–,≤ 100 nM,"Cc1cc(Nc2cc(N3CCN(C)CC3)nc(-c3cccc([N+](=O)[O-])c3)n2)n[nH]1 [Example 162, N-(5-methyl-1H-pyrazol-3-yl)-6-(4-methylpiperazin-1-yl)-2-(3-nitrophenyl)pyrimidin-4-amine]"
–,≤ 100 nM,≤ 100 nM,–,≤ 100 nM,"Cc1cc(Nc2cc(N3CCN(C)CC3)nc(-c3cccc(C#N)c3)n2)n[nH]1 [Example 163, 3-(4-(5-methyl-1H-pyrazol-3-ylamino)-6-(4-methylpiperazin-1-yl)pyrimidin-2-yl)benzonitrile]"
–,≤ 100 nM,≤ 100 nM,–,≤ 100 nM,"COC(=O)c1cccc(-c2nc(Nc3cc(C)[nH]n3)cc(N3CCN(C)CC3)n2)c1 [Example 166, methyl 3-(4-(5-methyl-1H-pyrazol-3-ylamino)-6-(4-methylpiperazin-1-yl)pyrimidin-2-yl)benzoate]"
≤ 1000 nM,≤ 100 nM,≤ 100 nM,–,–,"Cc1cc(Nc2cc(N3CCN(C)CC3)nc(-c3ccc(F)c(F)c3)n2)n[nH]1 [Example 168, 2-(3,4-difluorophenyl)-N-(5-methyl-1H-pyrazol-3-yl)-6-(4-methylpiperazin-1-yl)pyrimidin-4-amine]"
–,≤ 100 nM,–,≤ 1000 nM,≤ 100 nM,"Cc1cc(C)cc(-c2nc(Nc3cc(C)[nH]n3)cc(N3CCN(C)CC3)n2)c1 [Example 169, 2-(3,5-dimethylphenyl)-N-(5-methyl-1H-pyrazol-3-yl)-6-(4-methylpiperazin-1-yl)pyrimidin-4-amine]"
–,≤ 100 nM,–,≤ 1000 nM,≤ 100 nM,"COCCN(C)c1cc(Nc2cc(C)[nH]n2)nc(-c2ccccc2)n1 [Example 171, N^4-(2-methoxyethyl)-N^4-methyl-N^6-(5-methyl-1H-pyrazol-3-yl)-2-phenyl pyrimidine-4,6-diamine]"
≤ 1000 nM,≤ 100 nM,–,≤ 1000 nM,–,"CCc1ccccc1-c1nc(Nc2cc(C)[nH]n2)cc(NC2CCOCC2)n1 [Example 174, 2-(2-ethylphenyl)-N^4-(5-methyl-1H-pyrazol-3-yl)-N^6-(tetrahydro-2H-pyran-4-yl)pyrimidine-4,6-diamine]"
–,≤ 100 nM,–,≤ 1000 nM,≤ 100 nM,"CCc1ccccc1-c1nc(Nc2cc(C)[nH]n2)cc(N2CCN(C)CC2)n1 [Example 175, 2-(2-ethylphenyl)-N-(5-methyl-1H-pyrazol-3-yl)-6-(4-methylpiperazin-1-yl)pyrimidin-4-amine]"
≤ 1000 nM,≤ 100 nM,≤ 100 nM,–,–,"Cc1cc(Nc2cc(N3CCN(C)CC3)nc(-c3ccc4c(c3)OC(F)(F)O4)n2)n[nH]1 [Example 178, 2-(2,2-difluorobezo[d][1,3]dioxol-5-yl)-N-(5-methyl-1H-pyrazol-3-yl)-6-(4-methylpiperazin-1-yl)pyrimidin-4-amine]"
–,≤ 100 nM,–,≤ 1000 nM,≤ 100 nM,"Cc1cc(Nc2cc(N3CCN(C)CC3)nc(-c3cccc(C)c3C)n2)n[nH]1 [Example 179, 2-(2,3-dimethylphenyl)-N-(5-methyl-1H-pyrazol-3-yl)-6-(4-methylpiperazin-1-yl)pyrimidin-4-amine]"
–,≤ 100 nM,–,≤ 1000 nM,≤ 100 nM,"COCCN(C)c1cc(Nc2cc(C)[nH]n2)nc(-c2cc(F)ccc2F)n1 [Example 184, 2-(2,5-difluorophenyl)-N^4-(2-methoxyethyl)-N^4-methyl-N^6-(5-methyl-1H-pyrazol-3-yl)pyrimidine-4,6-diamine]"
–,≤ 100 nM,–,≤ 1000 nM,≤ 100 nM,"Cc1cc(Nc2cc(NC3CCOCC3)nc(-c3cc(F)ccc3F)n2)n[nH]1 [Example 185, 2-(2,5-difluorophenyl)-N^4-(5-methyl-1H-pyrazol-3-yl)-N^6-(tetrahydro-2H-pyran-4-yl)pyrimidine-4,6-diamine]"
≤ 1000 nM,≤ 100 nM,–,≤ 1000 nM,–,"Cc1cc(Nc2cc(N3CCN(C)CC3)nc(-c3cccc(OCc4ccccc4)c3)n2)n[nH]1 [Example 188, 2-(3-(benzyloxy)phenyl)-N-(5-methyl-1H-pyrazol-3-yl)-6-(4-methylpiperazin-1-yl)pyrimidin-4-amine]"
–,≤ 100 nM,≤ 100 nM,–,≤ 100 nM,"CCOc1cccc(-c2nc(Nc3cc(C)[nH]n3)cc(N3CCN(C)CC3)n2)c1 [Example 190, 2-(3-ethoxyphenyl)-N-(5-methyl-1H-pyrazol-3-yl)-6-(4-methylpiperazin-1-yl)pyrimidin-4-amine]"
–,≤ 100 nM,≤ 100 nM,–,≤ 100 nM,"COc1cc(OC)cc(-c2nc(Nc3cc(C)[nH]n3)cc(N3CCN(C)CC3)n2)c1 [Example 191, 2-(3,5-dimethoxyphenyl)-N-(5-methyl-1H-pyrazol-3-yl)-6-(4-methylpiperazin-1-yl)pyrimidin-4-amine]"
≤ 1000 nM,≤ 100 nM,≤ 100 nM,–,–,"Cc1cc(Nc2cc(N3CCN(C)CC3)nc(-c3cccc(OC(F)(F)F)c3)n2)n[nH]1 [Example 192, N-(5-methyl-1H-pyrazol-3-yl)-6-(4-methylpiperazin-1-yl)-2-(3-(trifluoromethoxy)phenyl)pyrimidin-4-amine]"
–,≤ 100 nM,≤ 100 nM,–,≤ 100 nM,"Cc1ccc(F)c(-c2nc(Nc3cc(C)[nH]n3)cc(N3CCN(C)CC3)n2)c1 [Example 193, 2-(2-fluoro-5-methylphenyl)-N-(5-methyl-1H-pyrazol-3-yl)-6-(4-methylpiperazin-1-yl)pyrimidin-4-amine]"
–,≤ 100 nM,≤ 100 nM,–,≤ 100 nM,"Cc1cc(Nc2cc(N3CCN(C)CC3)nc(-c3cc(F)ccc3C)n2)n[nH]1 [Example 196, 2-(5-fluoro-2-methylphenyl)-N-(5-methyl-1H-pyrazol-3-yl)-6-(4-methylpiperazin-1-yl)pyrimidin-4-amine]"
–,≤ 100 nM,≤ 100 nM,–,≤ 100 nM,"COc1ccc(F)c(-c2nc(Nc3cc(C)[nH]n3)cc(N3CCN(C)CC3)n2)c1 [Example 197, 2-(2-fluoro-5-methoxyphenyl)-N-(5-methyl-1H-pyrazol-3-yl)-6-(4-methylpiperazin-1-yl)pyrimidin-4-amine]"

Structure (SMILES),"IC50 [1, 4]",IC50 [2],IC50 ([3]; 40 minutes at room temperature),"IC50 [3, 4]",IC50 ([1]; 40 minutes at room temperature)
Cc1cc(Nc2cc(N3CCN(C)CC3)nc(-c3cccc(F)c3F)n2)n[nH]1 [Example 200],–,≤ 100 nM,≤ 100 nM,–,≤ 100 nM

# Reference: US20090029992A1, “SUBSTITUTED PYRAZOLE COMPOUNDS” (priority 2007, published 2009)
